pIC50: −log10 of the molar value.
How the values were obtained:
MCF7 cells = assay: Whole cell cytotoxicity assay: Sulforhodamine B; assay type: cell-based; settings: Homo sapiens, 48 hours with drug, Sulforhodamine B staining
Method: Whole Cell Cytotoxicity Assay:Sulforhodamine B
The following procedure can be found on the Developmental Therapeutics Program NCI/NIH web site at http://dtp.nci.nih.gov/brancehes/btb/ivclsp.html.
1. Human tumor cell lines of HT29, A549 and MCF7 are grown in DMEM containing 10% fetal bovine serum and 2 mM L-glutamine. Cells are plated in a 96 well plate at a density of 5000 cells per well in 100 μL of growth medium and incubated at 37° C., 5% CO2, for 24 hours prior to the addition of experimental compounds.
2. Experimental drugs are solubilized in DMSO for a final concentration of 20 mM immediately prior to use. Drugs are further diluted in growth media for a total of nine drug concentrations and a growth control. At the 24-hour time point, one plate of cells is fixed in situ with TCA as a measurement of the cell population at time zero, or the time of drug addition.
3. The plates are further incubated with drug for an additional 48 hours.
4. The cells are fixed in situ by gently aspirating off the culture media and then adding 50 μL of ice cold 10% TCA per well and incubated at 4° C. for 60 minutes. The plates are washed with tap water five times and allowed to air dry for 5 minute.
5. 50 μl of a 0.4% (w/v) Sulforhodamine B solution in 1% (v/v) acetic acid is added per well and incubated for 30 minutes at room temperature.
6. Following staining, plates are washed five times with 1% acetic acid to remove any unbound dye and then allowed to air dry for 5 minutes.
7. Stain is solubilized with 100 μL of 10 mM Tris pH 10.5 per well and placed on an orbital rotator for 5 minutes.
8. Absorbance is read at 570 nm.

[1] = system: HDAC (HeLa cell nuclear extract, a mosaic of HDAC enzymes); assay: In vitro fluorescent histone deacetylase (HDAC) activity assay; assay type: biochemical; settings: HeLa cell nuclear extract as HDAC source, 50 μM substrate, 10 min at room temperature (in some assays recombinant HDAC8); read-out: IC50 HDAC Inhibition
Method: Histone deacetylase (HDAC) activity assays were performed using the HDAC fluorescent activity assay/drug discovery kit (Biomol Research Laboratories, Plymouth Meeting, Pa.) essentially according to the manufacturer's instructions. The included HeLa cell nuclear extract, which contains a mosaic of HDAC enzymes and other nuclear factors, was used as the source of HDAC activity. The final substrate concentration in the assay mixture was 50 μM. The reaction was allowed to proceed for 10 min at room temperature before stopping the reaction. Test compounds were prepared as 20 mM stock solutions in DMSO (Molecular Biology grade, Sigma-Aldrich Co., St. Louis, Mo.) and stored at −70° C. Serial dilutions of test compounds were prepared in assay buffer immediately prior to testing. DMSO was determined in a separate trial to have no significant effect on the activity of this assay at concentrations up to 5%; the final DMSO concentration in the wells was no more than 2% and therefore DMSO effects were safely neglected. Assays were performed in white polystyrene 96-well half-area assay plates (Corning, Corning, N.Y.) and measured on a Wallace 1420 fluorescent plate reader (Wallac Oy, Turku, Finland) with an excitation wavelength of 355 nm, an emission wavelength of 460 nm, and a 1 sec signal averaging time.
In some assays recombinant HDAC8 (Biomol) was used as the source of the enzyme activity; here the final substrate concentration was 250 μM, the final concentration of HDAC8 was 0.02 u/μL and the reaction was allowed to proceed at 37° C. for 1 h before stopping. For all curves, IC50 values were calculated with the GraFit curve-fitting program (Erithacus, Horley, Surrey, UK).

Structure (SMILES)	GI50 (MCF7 cells) [µM]	pIC50 [1]
O=C(/C=C/c1cnc(N2CCN(S(=O)(=O)c3ccc([N+](=O)[O-])cc3)CC2)s1)NO [Example 4h]	5	5.79
O=C(NO)c1cnc(NC2CCN(S(=O)(=O)c3ccc4ccccc4c3)CC2)s1 [Example 5f, 2-{[1-(2-naphthylsulfonyl)piperidin-4-yl]amino}-1,3-thiazole-5-carboxylic acid hydroxyamide]	20	–
O=C(NO)c1cnc(N2CCC(NS(=O)(=O)c3ccc4ccccc4c3)CC2)s1 [Example 5]	6	7.30
O=C(/C=C/c1cnc(N2CCN(S(=O)(=O)c3ccc(C(F)(F)F)cc3)CC2)s1)NO [Example 4g]	3	4.84
Cc1ccc(S(=O)(=O)N2CCCN(c3ncc(C(=O)NO)s3)C2)cc1 [Example 5h]	3.5	6.17
Cc1ccc(S(=O)(=O)N2CCN(c3ncc(/C=C/C(=O)NO)s3)CC2)cc1 [Example 4f]	2	6.26
O=C(/C=C/c1cnc(N2CCN(S(=O)(=O)c3ccc(OC(F)(F)F)cc3)CC2)s1)NO [Example 4e]	6	5.49
O=C(/C=C/c1cnc(N2CCN(S(=O)(=O)c3ccc(-c4ccccc4)cc3)CC2)s1)NO [Example 4j]	1.5	4.94
O=C(NO)c1cnc(N2CCN(C(=O)CCc3c[nH]c4ccccc34)CC2)s1 [Example 23b, 2-[4-(3-{1H-indol-3-yl}propanoyl)-piperazin-1-yl]-1,3-thiazole-5-carboxylic acid hydroxyamide]	30	6.06
O=C(/C=C/c1cnc(N2CCN(S(=O)(=O)c3cccs3)CC2)s1)NO [Example 4i]	18	6.19
O=C(NO)c1cnc(N2CCN(C(=O)Cc3ccccc3)CC2)s1 [Example 23, 2-(4-phenylacetyl-piperazin-1-yl)-thiazole-5-carboxylic acid hydroxamide]	20	4.50
O=C(NO)c1cnc(CN2CCN(S(=O)(=O)c3ccc4ccccc4c3)CC2)s1 [Example 24]	10	5.16
O=C(NO)c1cnc(N2CCN(Cc3ccccc3)CC2)s1 [Example 17, 2-(4-Benzyl-piperazin-1-yl)-thiazole-5-carboxylic acid hydroxyamide]	4	–
Cc1ccc(S(=O)(=O)NC2CCN(c3ncc(C(=O)NO)s3)CC2)cc1 [Example 5d]	15	–
CN(C)c1cccc2c(S(=O)(=O)N3CCN(c4ncc(/C=C/C(=O)NO)s4)CC3)cccc12 [Example 4k]	4	3.50
Cc1ccc(S(=O)(=O)NC2C3CN(c4ncc(C(=O)NO)s4)CC32)cc1 (centres unmarked) [Example 5g, 2-(6-{[(4-methylphenyl)sulfonyl]amino}-3-azabicyclo[3.1.0]hex-3-yl)-1,3-thiazole-5-carboxylic acid hydroxyamide]	8	6.22
O=C(NO)c1cnc(N2CCC(CNS(=O)(=O)c3ccc(-c4ccccc4)cc3)CC2)s1 [Example 5e, 2-(4-{[(1,1′-biphenylsulfonyl)amino]methyl}piperidin-1-yl)-1,3-thiazole-5-carboxylic acid hydroxyamide]	2	–
COc1ccc(S(=O)(=O)N2CCN(c3ncc(/C=C/C(=O)NO)s3)CC2)cc1 [Example 4d]	1	6.40
O=C(CN1CCN(c2ncc(C(=O)NO)s2)CC1)c1ccccc1 [Example 20B, 2-(4-(2-oxo-2-phenylethyl)-piperazin-1-yl)-1,3-thiazole-5-carboxylic acid hydroxyamide]	4	–
O=C(NO)c1cnc(N2CCN(CCc3ccccc3)CC2)s1 [Example 20, 2-(4-phenylethyl-piperazin-1-yl)-thiazole-5-carboxylic acid hydroxyamide]	–	3.93
O=C(NO)c1cnc(N2CCN(C(=O)c3ccccc3)CC2)s1 [Example 22, 2-(4-benzoyl-piperazin-1-yl)-thiazole-5-carboxylic acid hydroxamide]	40	5.46
O=C(NO)c1cnc(C2CCN(S(=O)(=O)c3ccc(-c4ccccc4)cc3)CC2)s1 [Example 25, 2-[1-(1,1′-biphenyl-4-ylsulfonyl)piperidin-4-yl]-1,3-thiazole-5-carboxylic acid hydroxyamide]	100	4.88
COc1ccc(S(=O)(=O)N2CCN(c3ncc(/C=C/C(=O)NO)s3)CC2)cc1OC [Example 4c]	4	6.80
O=C(NO)c1cnc(N2CCCN(S(=O)(=O)c3ccc4ccccc4c3)CC2)s1 [Example 2, 1-(2-naphthylsulfonyl)-4-(5-hydroxyaminocarbonylthiazol-2-yl)-1,4-diazepane]	10	5.23
CC(=O)N1CCN(c2ncc(C(=O)NO)s2)CC1 [Example 21, 2-(4-acetyl-piperazin-1-yl)-thiazole-5-carboxylic acid hydroxamide]	–	5.56
O=C(NO)c1cnc(N2CCC(NS(=O)(=O)c3ccc(-c4ccccc4)cc3)CC2)s1 [Example 5b]	10	–
O=C(/C=C/c1cnc(N2CCN(S(=O)(=O)c3ccccc3)CC2)s1)NO [Example 4b]	3	6.36
O=C(/C=C/c1cnc(N2CCN(S(=O)(=O)c3ccc(F)cc3)CC2)s1)NO [Example 4m]	2.5	5.33
O=C(/C=C/c1cnc(N2CCN(S(=O)(=O)c3ccc4ccccc4c3)CC2)s1)NO [Example 4]	0.7	7.35

From patent US7345043B2, “Inhibitors of histone deacetylase” (Miikana Therapeutics, priority 2004, dated 2008)
